# Results published in article PMC7691360, “Synthesis of novel cytotoxic tetracyclic acridone derivatives and study of their molecular docking, ADMET, QSAR, bioactivity and protein binding properties” (Scientific Reports, 2020).
# Key:
# [1] = tested on: MDA-MB-231 cells; assay: MTT cytotoxicity assay against MDA-MB-231; type: cell-based; settings: Homo sapiens, 48 h, read-out: Percentage of inhibition against treated concentrations; for activity at 1 µM: MDAMB231, 1 µM; for activity at 5 µM: MDAMB231, 5 µM; for activity at 10 µM: MDAMB231, 10 µM; for activity at 25 µM: MDAMB231, 25 µM; for activity at 50 µM: MDAMB231, 50 µM
# Method: (§1) Anticancer activity of 7a–s has been evaluated by MTT [3-(4,5-dimethylthiazol-2-yl)-2,5-diphenyl-tetrazolium bromide] assay and the cell lines HT29 (ATCC: HTB-38), MDA-MB-231 (ATCC: HTB-26), HEK293T (ATCC: CRL-3216) were procured from American type cell culture collection (ATCC), Manassas, USA and other chemicals were procured from Sigma-Aldrich. Then absorbance (used as a measure of cell proliferation) was measured at 570 nm with a kinetic micro-plate reader (BioTek, Winooski, Vermont).
# (§2) Having synthesized a series of the title compounds, all of them were screened for their in vitro anticancer profiles against a panel of human colorectal adenocarcinoma (HT29), human breast adenocarcinoma (MDA-MB-231) and mutated Human embryonic kidney 293 (HEK293T) cancer cell lines by using MTT colourmetric assay as per Johan van Meerloo protocol. The three cell lines were cultured in […] medium and supplemented with 10% FBS followed by 100 units/mL penicillin/ streptomycin and were cultured at 37 °C in 5% CO2. Cell proliferation of the growing cells was measured in terms of logarithmic standards. Analytically, all the cultured cells were plated onto 96 well plates at a starting density of 10^5 cells. Then all the cells were treated with title compounds 7a–s for a period of 48 h with different concentrations. After this incubation cell proliferation inhibition was determined by MTT assay and all the experiments were conducted in triplicates and readings were presented as mean ± SD and provided in Tables 1, 2 and 3.
# [2] = tested on: HEK293T cells; assay: MTT cytotoxicity assay against HEK293T; type: cell-based; settings: Homo sapiens, HEK-293T, 48 h, read-out: Percentage of inhibition against treated concentrations
# Method: as §1, §2
# [3] = tested on: HT29 cells; assay: MTT cytotoxicity assay against HT29; type: cell-based; settings: Homo sapiens, 48 h, read-out: Percentage of inhibition against treated concentrations; for activity at 1 µM: HT-29, HT29, 1 µM; for activity at 5 µM: HT-29, HT29, 5 µM; for activity at 10 µM: HT-29, HT29, 10 µM; for activity at 25 µM: HT-29, HT29, 25 µM; for activity at 50 µM: HT-29, HT29, 50 µM
# Method: as §1, §2
SMILES,activity at 1 µM [1] [%],activity at 5 µM [1] [%],activity at 10 µM [1] [%],activity at 25 µM [1] [%],activity at 50 µM [1] [%],activity at 1 µM [2] [%],activity at 5 µM [2] [%],activity at 10 µM [2] [%],activity at 25 µM [2] [%],activity at 50 µM [2] [%],melting point [°C],activity at 1 µM [3] [%],activity at 5 µM [3] [%],activity at 10 µM [3] [%],activity at 25 µM [3] [%],activity at 50 µM [3] [%]
"O=C(c1ccccn1)N1CCn2c3ccccc3c(=O)c3cccc1c32 [Compound 7a, 3-Picolinoyl-2,3-dihydropyrazino[3,2,1-de]acridin-7(1H)-one]",84.42 ± 0.35,55.22 ± 0.46,44.52 ± 0.29,25 ± 0.27,14.7 ± 0.42,99.93 ± 0.11,98.52 ± 0.96,97.63 ± 0.45,96.81 ± 0.2,57 ± 0.81,232 to 234,78.91 ± 0.42,57.61 ± 0.39,44.1 ± 0.86,14.9 ± 0.36,8.77 ± 0.72
"O=C(c1cccnc1)N1CCn2c3ccccc3c(=O)c3cccc1c32 [Compound 7b, 3-Nicotinoyl-2,3-dihydropyrazino[3,2,1-de]acridin-7(1H)-one]",86.22 ± 0.83,56.42 ± 0.47,46.91 ± 0.44,32.3 ± 0.16,19 ± 0.62,98.93 ± 0.66,97.41 ± 0.57,96.44 ± 0.46,95.2 ± 0.29,55.1 ± 0.88,231 to 233,89.93 ± 0.66,65.63 ± 0.27,52.5 ± 0.82,38.1 ± 0.42,19.4 ± 0.35
"O=C(c1ccncc1)N1CCn2c3ccccc3c(=O)c3cccc1c32 [Compound 7c, 3-Isonicotinoyl-2,3 dihydropyrazino[3,2,1-de]acridin-7(1H)-one]",86.8 ± 0.96,57.39 ± 0.32,47.2 ± 0.93,38.69 ± 0.28,22.8 ± 0.89,96.63 ± 0.53,94.28 ± 0.53,90.18 ± 0.38,83.28 ± 0.21,49.08 ± 0.23,233 to 235,90.02 ± 0.31,66.2 ± 0.83,52.9 ± 0.84,40.37 ± 0.15,20.79 ± 0.08
"O=C(CC1CC1)N1CCn2c3ccccc3c(=O)c3cccc1c32 [Compound 7d, 3-(2-Cyclopropylacetyl)-2,3-dihydropyrazino[3,2,1-de]acridin-7(1H)-one]",85.23 ± 0.73,55.73 ± 0.21,45.6 ± 0.98,28.6 ± 0.43,16.83 ± 0.16,99.76 ± 0.56,98.09 ± 0.42,97.1 ± 0.88,96.35 ± 0.19,56.8 ± 0.69,–,88.71 ± 0.78,63.1 ± 0.71,50.91 ± 0.38,29.68 ± 0.23,18 ± 0.39
"Cc1cccc(C(=O)N2CCn3c4ccccc4c(=O)c4cccc2c43)n1 [Compound 7e, 3-(6-Methylpicolinoyl)-2,3-dihydropyrazino[3,2,1-de]acridin-7(1H)-one]",82.18 ± 0.79,52.9 ± 0.75,42.1 ± 0.52,15.83 ± 0.14,11.3 ± 0.22,98.73 ± 0.97,97.08 ± 0.25,95.2 ± 0.76,91.72 ± 0.35,54 ± 0.77,246 to 248,84.9 ± 0.94,60.82 ± 0.33,49.1 ± 0.85,27.6 ± 0.35,16.3 ± 0.55
"O=C(c1ccsc1)N1CCn2c3ccccc3c(=O)c3cccc1c32 [Compound 7h, 3-(Thiophene-3-carbonyl)-2,3-dihydropyrazino[3,2,1-de]acridin-7(1H)-one]",82.62 ± 0.41,53.8 ± 0.75,42.4 ± 0.49,21.4 ± 0.29,12.6 ± 0.72,92.81 ± 0.18,89.61 ± 0.31,86.2 ± 0.66,78.45 ± 0.18,46.23 ± 0.43,–,87.92 ± 0.24,62.4 ± 0.68,50.2 ± 0.65,29.5 ± 0.51,17.8 ± 0.65
"O=C(c1cccc(C(F)(F)F)n1)N1CCn2c3ccccc3c(=O)c3cccc1c32 [Compound 7i, 3-(6-(Trifluoromethyl)picolinoyl)-2,3-dihydropyrazino[3,2,1-de]acridin-7(1H)-one]",84.78 ± 0.64,55.71 ± 0.32,45.6 ± 0.94,28.6 ± 0.3,16.8 ± 0.37,98.39 ± 0.19,95.7 ± 0.97,93.38 ± 0.64,88.56 ± 0.24,52.19 ± 0.26,–,83.56 ± 0.57,59.1 ± 0.75,46.5 ± 0.52,25.8 ± 0.28,12.2 ± 0.27
"O=C(c1ccccc1C(F)(F)F)N1CCn2c3ccccc3c(=O)c3cccc1c32 [Compound 7m, 3-(2-(Trifluoromethyl)benzoyl)-2,3-dihydro-1H,7H-pyrazino[3,2,1-de]acridin-7-one]",92.11 ± 0.88,71.15 ± 0.19,65 ± 0.46,56.9 ± 0.59,33.5 ± 0.57,97.18 ± 0.28,94.73 ± 0.82,92.36 ± 0.46,86.88 ± 0.3,51.2 ± 0.07,–,92.71 ± 0.01,76.71 ± 0.17,68.5 ± 0.72,57.33 ± 0.32,23.8 ± 0.33
"O=C(c1cccc(C(F)(F)F)c1)N1CCn2c3ccccc3c(=O)c3cccc1c32 [Compound 7n, 3-(3-(Trifluoromethyl)benzoyl)-2,3-dihydro-1H,7H-pyrazino[3,2,1-de]acridin-7-one]",90.57 ± 0.59,69.83 ± 0.31,61.97 ± 0.44,54.23 ± 0.32,31.96 ± 0.16,96.84 ± 0.75,94.67 ± 0.59,92.02 ± 0.39,84.32 ± 0.28,49.69 ± 0.21,–,95.32 ± 0.73,79.12 ± 0.33,72.72 ± 0.33,59.26 ± 0.11,26.9 ± 0.84
"O=C(c1cccc(F)c1)N1CCn2c3ccccc3c(=O)c3cccc1c32 [Compound 7q, 3-(3-Fluorobenzoyl)-2,3-dihydro-1H,7H-pyrazino[3,2,1-de]acridin-7-one]",93.46 ± 0.54,72.41 ± 0.45,66.2 ± 0.69,57.89 ± 0.12,34.1 ± 0.37,98.51 ± 0.12,96.21 ± 0.72,94.69 ± 0.34,91.34 ± 0.41,53.8 ± 0.58,–,94.96 ± 0.53,78.87 ± 0.43,70.57 ± 0.53,58.23 ± 0.29,25.3 ± 0.44
"O=c1c2ccccc2n2c3c(cccc13)N(c1cccnc1)CC2 [Compound 7s, 3-(Pyridin-3-yl)-2,3-dihydropyrazino[3,2,1-de]acridin-7(1H)-one]",88.63 ± 0.67,59.87 ± 0.26,49.22 ± 0.24,43.07 ± 0.28,25.4 ± 0.46,93.26 ± 0.88,91.78 ± 0.53,88.09 ± 0.54,80.57 ± 0.26,47.8 ± 0.79,–,84.78 ± 0.12,60.38 ± 0.24,48.4 ± 0.57,27.5 ± 0.35,15.2 ± 0.61
"COc1cccc2c1C(=O)c1c(O)c3c(c(O)c1C2=O)C[C@@](O)(C(=O)CO)C[C@@H]3O[C@H]1C[C@H](N)[C@H](O)[C@H](C)O1 [Doxorubicin, reference compound]",93.65 ± 0.42,87.54 ± 0.67,79.98 ± 0.67,69.98 ± 0.47,41.2 ± 0.79,96.1 ± 0.83,95.66 ± 0.42,92.44 ± 0.56,85.27 ± 0.78,50.25 ± 0.14,–,97.09 ± 0.79,90.76 ± 0.83,82.92 ± 0.54,72.6 ± 0.83,42.8 ± 0.86
